Measurements taken from patent US11542508B2, “Isolated polynucleotides and polypeptides and methods of using same for expressing an expression product of interest” (priority 2016, dated 2023).
Entries after “also recorded” stand apart in the source; their conditions may differ.

Tests used:
phi3T = experiment: Growth dynamics of phage-infected cultures (phi3T infection of B. subtilis 168); format: cell-based; conditions: B. subtilis 168 infected by phi3T at MOI=0.1, LB supplemented with synthesized peptide
Procedure: Specifically, overnight cultures of B. subtilis strain 168 were diluted 1:50 in LB media supplemented with 0.1 mM MnCl2 and 5 mM MgCl2, and incubated at 37° C. with shaking until reaching optical density (O.D) 600 nm=0.5. Phages (phi29, phi105, rho14 or phi3T) were added to the bacterial culture at MOI=1 and incubated for 3 hours. The media were centrifuged at 4000 rpm for 10 minutes at 4° C. and the supernatant was filtered with 0.2 μm filer (GE Healthcare Life Sciences, Whatman, CAT #10462200). Phages and large molecules were further filtered out from the media by using Amicon Ultra centrifugal filters at a cutoff of 3,000 NMWL (3 kDa) (Milipore, CAT #UFC900324). A plaque assay was performed in order to verify that no phages were left in the medium.
7.5 mg (per reaction) of Proteinase K-Agarose from Tritirachium album (Sigma, CAT #P9290) were washed twice with 750 μl of sterile water and then resuspended with 750 μl of LB supplemented with 0.1 mM MnCl2 and 5 mM MgCl2. Following, the tubes were centrifuged again and the supernatant was discarded. 1.5 ml of phi3T-derived conditioned medium or control medium was added to a tube containing the washed proteinase K. The media were incubated for 2 hours at 37° C. with the proteinase K. The media were centrifuged and the supernatants were collected for the infection assay.
(§1) Overnight cultures of bacteria were diluted 1:100 in LB media and incubated at 37° C. with shaking until reaching O.D 600 nm=0.1. The bacterial culture was centrifuged at 4000 rpm for 10 minutes at room temperature. The supernatant was discarded and the pellet was resuspended in LB medium supplemented with 0.1 mM MnCl2 and 5 mM MgCl2 at 10% of the initial volume. The concentrated bacterial culture was added to conditioned medium or medium supplemented with synthesized arbitrium peptide in a ratio of 1:9 (bacteria to medium) and incubated for 1 hour at room temperature. Following, the culture was infected with phages at MOI=0.1. Optical density measurements at a wavelength of 600 nm were taken using a TECAN Infinite 200 plate reader in a 96-wells plate.

spBeta = experiment: Growth dynamics of phage-infected cultures (spBeta infection of B. subtilis BEST7003); format: cell-based; conditions: B. subtilis BEST7003 infected by spBeta at MOI=0.1, LB supplemented with synthesized peptide
Procedure: as §1

phi3T AimR receptor = target: T1, phi3T AimR receptor (Bacillus phage phi3T, UniProt P0DOE3); format: binding; conditions: AimR 200 nM, peptide 9-4000 nM
T1 construct: made in house; host or cells: E. coli BL21(DE3), pET28a
T1 sequence (P0DOE3 whole entry, looked up): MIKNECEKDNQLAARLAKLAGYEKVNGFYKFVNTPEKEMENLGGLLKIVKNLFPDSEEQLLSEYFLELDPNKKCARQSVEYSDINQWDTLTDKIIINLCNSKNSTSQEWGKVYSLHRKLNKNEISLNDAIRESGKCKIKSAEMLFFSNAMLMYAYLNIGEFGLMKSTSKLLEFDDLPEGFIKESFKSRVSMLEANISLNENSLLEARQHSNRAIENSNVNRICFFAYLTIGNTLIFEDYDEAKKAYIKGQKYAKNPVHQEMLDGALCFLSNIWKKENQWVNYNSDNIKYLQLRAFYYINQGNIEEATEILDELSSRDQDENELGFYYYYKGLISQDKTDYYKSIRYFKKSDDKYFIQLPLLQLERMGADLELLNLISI
Procedure: Two-step purified 6×His-tagged AimR stored in Tris/NaCl buffer (50 mM Tris pH 8.0, 150 mM NaCl, 2 mM TCEP) at −80° C. was thawed on ice and centrifuged at 21,000 g for 10 minutes at 4° C. prior to analysis. Peptides [SAIRGA (SEQ ID NO: 269) and GMPRGA (SEQ ID NO: 271)] were solubilized in 50 mM Tris-HCl pH 8.0, 150 mM NaCl to a final concentration of 100 μM. AimR was diluted to 200 nM and was incubated with 16 different peptide concentrations varying between 9-4000 nM, which were prepared in Tris/NaCl buffer containing 0.1% [v/v] Pluronic acid (NanoTemper). Roughly 3 μl were loaded into NT.LabelFree Zero-Background Premium Coated Capillaries (NanoTemper) and inserted into a Monolith NT.LabelFree device (NanoTemper). MST experiments were performed at 60% MST power (infra-red laser) and 20% LED power at 23° C. using the Monolith NT.LabelFree instrument (Nanotemper). Ratios between normalized initial fluorescence and post-temperature-jump and thermophoresis were calculated and averaged from 3 independent runs (runs were incubated for 20 minutes at room temperature before the measurement). A plot of fluorescence ratios versus peptide concentration was used to assess the binding capacity of the phage protein and its cognate peptide ligand.

AimR = target: T2, AimR (Bacillus phage phi3T, UniProt P0DOE3); experiment: Analytical gel filtration of purified AimR (oligomeric state); conditions: AimR:SAIRGA 1:2, AimR:GMPRGA 1:1 molar ratio
T2 construct: made in house; host or cells: E. coli BL21(DE3), pET28a
T2 sequence (P0DOE3 whole entry, looked up): T1 sequence (P0DOE3 whole entry, looked up)
Procedure: Following, AimR was expressed in E. coli BL21(DE3) cells with a C-terminal 6× His-tag. Expression was performed at 15° C. for about ˜18 hours using 200 μM IPTG (Isopropyl β-D-1-thiogalactopyranoside) as an inducer. The cells pellet was resuspended in lysis buffer [50 mM Tris pH 8, 0.3M NaCl, 20 mM Imidazole, 2 mM DTT, 0.2 mg/ml Lysozyme, 1 μg/ml DNAse, protease inhibitor cocktail (Calbiochem)], disrupted by a cell disrupter at 4° C. and clarified at 15,000 g for 30 minutes. The clarified lysate was loaded onto a HisTrap_FF_5 ml column (GE Healthcare) and washed with buffer containing 50 mM Tris pH 8, 0.3 M NaCl, 20 mM imidazole and 2 mM DTT. AimR was eluted from the column in one step with the same buffer containing 0.5 M imidazole. Fractions containing AimR were pooled and injected to a size exclusion column (HiLoad_16/60_Superdex_200_prepgrade,GE_Healthcare) equilibrated with 20 mM Tris pH 8, 0.3 M NaCl, 2 mM TCEP. Fractions containing pure AimR were pooled and flash frozen in aliquots using liquid nitrogen.
Pure AimR was injected to an analytical gel filtration column (Superdex_200_Increase_10/30 GL, GE Healthcare) equilibrated with buffer containing 20 mM Tris pH 8, 0.3 M NaCl, 2 mM TCEP. […]

AIRGA: shorter, 5 amino acids version of the SAIRGA peptide
effect on the phage infection dynamics (culture lysis, growth curve) (phi3T): neither observed; also recorded: do not guide lysogeny

GMPRGA: predicted mature AimP-derived arbitrium peptide of spBeta
effect on lysogeny / infection dynamics of spBeta (spBeta): promoted lysogeny of spBeta
specific binding to the phi3T AimR receptor (MST) (phi3T AimR receptor): did not show specific binding
AimR oligomeric state (migration in gel filtration column) (AimR): did not lead to a change in the AimR oligomeric state
effect on the phage infection dynamics (culture lysis, growth curve) (phi3T): did not affect the lysogeny profile of phi3T

PhrC: a known quorum sensing peptide of B. subtilis (ERGMT)
effect on the phage infection dynamics (culture lysis, growth curve) (phi3T): neither observed

SAIRG: shorter, 5 amino acids version of the SAIRGA peptide
effect on the phage infection dynamics (culture lysis, growth curve) (phi3T): neither observed; also recorded: do not guide lysogeny
